Species: Rattus norvegicus
Experiment: DrugMatrix - Regimen: Daily Repeat
Type: toxicity, organism-based, Sprague-Dawley
Set-up: regimen Daily Repeat, gender Male, age 6-8 weeks
Settings: in vivo, po, route oral GAVAGE, vehicle .5 % CMC; for ABSOLUTE BASOPHIL / ABSOLUTE EOSINOPHIL / ABSOLUTE LYMPHOCYTE / ABSOLUTE MONOCYTE / ABSOLUTE SEGMENTED NEUTROPHIL / BASOPHIL / EOSINOPHIL / ERYTHROCYTE COUNT / HEMATOCRIT / HEMOGLOBIN / LEUKOCYTE COUNT / LYMPHOCYTE / MEAN CORPUSCULAR HEMOGLOBIN / MEAN CORPUSCULAR HEMOGLOBIN CONCENTRATION / MEAN CORPUSCULAR VOLUME / MONOCYTE / NEUTROPHIL / NUCLEATED RED BLOOD CELLS / PLATELET COUNT: tissue Blood; for ALANINE AMINOTRANSFERASE / ALBUMIN / ALKALINE PHOSPHATASE / ASPARTATE AMINOTRANSFERASE / BLOOD UREA NITROGEN / CARBON DIOXIDE / CHLORIDE / CHOLESTEROL / CREATINE PHOSPHOKINASE / CREATININE / GLUCOSE / LACTATE DEHYDROGENASE / LIPASE / PHOSPHORUS / POTASSIUM / SODIUM / TOTAL BILIRUBIN / TOTAL PROTEIN / URIC ACID: tissue Plasma
[1] = 0 mg/kg, 72 h, dose level Control, time 3 day
[2] = 0 mg/kg, 120 h, dose level Control, time 5 day
[3] = 3 mg/kg, 72 h, dose level Low, time 3 day

In the case of `COc1nc(C)nc(Cl)c1N=C1NCCN1` [MOXONIDINE], the “ABSOLUTE BASOPHIL” value [1] is reported as 0 CELLS/uL, the “ABSOLUTE EOSINOPHIL” value [1] is reported as 47.67 CELLS/uL and the “ABSOLUTE LYMPHOCYTE” value [1] is reported as 15937.67 CELLS/uL. The “ABSOLUTE MONOCYTE” value [1] was 138.33 CELLS/uL, the “ABSOLUTE SEGMENTED NEUTROPHIL” value [1] was 1443 CELLS/uL and the BASOPHIL [1] was 0%. For the same molecule, the EOSINOPHIL [1] was 0.33%, the “ERYTHROCYTE COUNT” value [1] was 5.45 x10E6/uL and the HEMATOCRIT [1] was 34.43%. For the same molecule, the HEMOGLOBIN [1] was 13.38 G/DL, the “LEUKOCYTE COUNT” value [1] was 17.57 x10E3/uL and the LYMPHOCYTE [1] was 90.33%. For the same molecule, the “MEAN CORPUSCULAR HEMOGLOBIN” value [1] was 24.6 pg, the “MEAN CORPUSCULAR HEMOGLOBIN CONCENTRATION” value [1] was 38.88 G/DL and the “MEAN CORPUSCULAR VOLUME” value [1] was 63.27 fL. The MONOCYTE [1] was 0.83%, the NEUTROPHIL [1] was 8.5% and the “NUCLEATED RED BLOOD CELLS” value [1] was 0 /100WBC. For the same molecule, the “PLATELET COUNT” value [1] was 1298 x10E3/uL, the “ALANINE AMINOTRANSFERASE” value [1] was 47.67 u/L and the ALBUMIN [1] was 4.18 G/DL. The “ALKALINE PHOSPHATASE” value [1] was 398.5 u/L, the “ASPARTATE AMINOTRANSFERASE” value [1] was 93.17 u/L and the “BLOOD UREA NITROGEN” value [1] was 16 mg/dL. The “CARBON DIOXIDE” value [1] was 29.17 mmol/L, the CHLORIDE [1] was 98.17 MEQ/L and the CHOLESTEROL [1] was 68.83 mg/dL. For the same molecule, the “CREATINE PHOSPHOKINASE” value [1] was 467.33 u/L, the CREATININE [1] was 0.14 mg/dL and the GLUCOSE [1] was 151.67 mg/dL. The “LACTATE DEHYDROGENASE” value [1] was 597.5 u/L, the LIPASE [1] was 9.33 u/L and the PHOSPHORUS [1] was 11.97 mg/dL. For the same molecule, the POTASSIUM [1] was 6.43 MEQ/L, the SODIUM [1] was 140.68 MEQ/L and the “TOTAL BILIRUBIN” value [1] was 0.18 mg/dL. The “TOTAL PROTEIN” value [1] was 5.82 G/DL, the “URIC ACID” value [1] was 1.48 mg/dL and the “ABSOLUTE BASOPHIL” value [2] was 0 CELLS/uL. For the same molecule, the “ABSOLUTE EOSINOPHIL” value [2] was 31 CELLS/uL, the “ABSOLUTE LYMPHOCYTE” value [2] was 14327.83 CELLS/uL and the “ABSOLUTE MONOCYTE” value [2] was 102.83 CELLS/uL. For the same molecule, the “ABSOLUTE SEGMENTED NEUTROPHIL” value [2] was 1321.67 CELLS/uL, the BASOPHIL [2] was 0% and the EOSINOPHIL [2] was 0.17%. The “ERYTHROCYTE COUNT” value [2] was 5.79 x10E6/uL, the HEMATOCRIT [2] was 36.1% and the HEMOGLOBIN [2] was 14.15 G/DL. For the same molecule, the “LEUKOCYTE COUNT” value [2] was 15.78 x10E3/uL, the LYMPHOCYTE [2] was 90.5% and the “MEAN CORPUSCULAR HEMOGLOBIN” value [2] was 24.48 pg. The “MEAN CORPUSCULAR HEMOGLOBIN CONCENTRATION” value [2] was 39.22 G/DL, the “MEAN CORPUSCULAR VOLUME” value [2] was 62.4 fL and the MONOCYTE [2] was 0.67%. The NEUTROPHIL [2] was 8.67%, the “NUCLEATED RED BLOOD CELLS” value [2] was 0.17 /100WBC and the “PLATELET COUNT” value [2] was 1211.67 x10E3/uL. The “ALANINE AMINOTRANSFERASE” value [2] was 49 u/L, the ALBUMIN [2] was 4.27 G/DL and the “ALKALINE PHOSPHATASE” value [2] was 356.67 u/L. The “ASPARTATE AMINOTRANSFERASE” value [2] was 90.17 u/L, the “BLOOD UREA NITROGEN” value [2] was 20.5 mg/dL and the “CARBON DIOXIDE” value [2] was 29.17 mmol/L. The CHLORIDE [2] was 98 MEQ/L, the CHOLESTEROL [2] was 69.83 mg/dL and the “CREATINE PHOSPHOKINASE” value [2] was 312 u/L. For the same molecule, the CREATININE [2] was 0.21 mg/dL, the GLUCOSE [2] was 149.83 mg/dL and the “LACTATE DEHYDROGENASE” value [2] was 322 u/L. The LIPASE [2] was 10 u/L, the PHOSPHORUS [2] was 12 mg/dL and the POTASSIUM [2] was 6.75 MEQ/L. The SODIUM [2] was 142.8 MEQ/L, the “TOTAL BILIRUBIN” value [2] was 0.17 mg/dL and the “TOTAL PROTEIN” value [2] was 6.1 G/DL. The “URIC ACID” value [2] was 1.68 mg/dL, the “ABSOLUTE BASOPHIL” value [3] was 0 CELLS/uL and the “ABSOLUTE EOSINOPHIL” value [3] was 88 CELLS/uL. For the same molecule, the “ABSOLUTE LYMPHOCYTE” value [3] was 13570 CELLS/uL, the “ABSOLUTE MONOCYTE” value [3] was 44 CELLS/uL and the “ABSOLUTE SEGMENTED NEUTROPHIL” value [3] was 1298 CELLS/uL. The BASOPHIL [3] was 0%, the EOSINOPHIL [3] was 0.67% and the “ERYTHROCYTE COUNT” value [3] was 5.63 x10E6/uL. For the same molecule, the HEMATOCRIT [3] was 34.87%, the HEMOGLOBIN [3] was 13.07 G/DL and the “LEUKOCYTE COUNT” value [3] was 15 x10E3/uL. For the same molecule, the LYMPHOCYTE [3] was 89.67%, the “MEAN CORPUSCULAR HEMOGLOBIN” value [3] was 23.2 pg and the “MEAN CORPUSCULAR HEMOGLOBIN CONCENTRATION” value [3] was 37.5 G/DL. The “MEAN CORPUSCULAR VOLUME” value [3] was 61.9 fL, the MONOCYTE [3] was 0.33% and the NEUTROPHIL [3] was 9.33%. For the same molecule, the “NUCLEATED RED BLOOD CELLS” value [3] was 0 /100WBC, the “PLATELET COUNT” value [3] was 1254.67 x10E3/uL and the “ALANINE AMINOTRANSFERASE” value [3] was 48 u/L. For the same molecule, the ALBUMIN [3] was 4 G/DL, the “ALKALINE PHOSPHATASE” value [3] was 327.67 u/L and the “ASPARTATE AMINOTRANSFERASE” value [3] was 95 u/L. The “BLOOD UREA NITROGEN” value [3] was 17 mg/dL, the “CARBON DIOXIDE” value [3] was 29 mmol/L and the CHLORIDE [3] was 99.33 MEQ/L. The CHOLESTEROL [3] was 69.67 mg/dL, the “CREATINE PHOSPHOKINASE” value [3] was 328.67 u/L and the CREATININE [3] was 0.17 mg/dL. For the same molecule, the GLUCOSE [3] was 144 mg/dL, the “LACTATE DEHYDROGENASE” value [3] was 269.67 u/L and the LIPASE [3] was 10.33 u/L. It also gave a PHOSPHORUS [3] of 12.07 mg/dL, a POTASSIUM [3] of 5.9 MEQ/L and an SODIUM [3] of 142.9 MEQ/L. The “TOTAL BILIRUBIN” value [3] was 0.23 mg/dL, the “TOTAL PROTEIN” value [3] was 5.53 G/DL and the “URIC ACID” value [3] was 1.4 mg/dL.
